The test system of one data set is Caco-2 cells. As to the kind of experiment: MTT cytotoxicity assay in undifferentiated Caco-2 cells. The class given is cell-based, human. The method, then: (§1) The human Caco-2 cell line (TC7 clone) was kindly provided by Dr. Edith Brot-Laroche (Université Pierre et Marie Curie-Paris 6, UMR S 872, Les Cordeliers, France). Human epithelial fibroblast cells (NHDF-Ad, Lonza®®, Porriño, Spain) were kindly provided by Dr. Gracia Mendoza (Aragon Health Research Institute, IIS Aragón, Spain). Caco-2 cells (passages 40–70) and fibroblasts (passages 10–30) were maintained in a humidified atmosphere of 5% CO2 at 37 °C and grown in medium following the method used by Quero et al.. The Caco-2 cells were sub-cultured in 25 cm^2 plastic flasks at a density of 1.2 × 10^4 cells/cm^2, while the fibroblasts were sub-cultured on 75 cm^2 plastic flasks at a density of 1 × 10^4 cells/cm^2. The culture medium was replaced every 2 days.
(§2) The gold complexes were diluted in dimethyl sulfoxide (DMSO) as a 10 mM stock solution, and then diluted in cell culture medium at the desired concentrations.
(§3) For the cytotoxicity screening assays, Caco-2 cells were seeded in 96-well plates at a density of 4 × 10^3 cells/well. The culture medium was replaced with medium containing the drug panel 24 h post-seeding, and the cells were incubated for 24, 48 and 72 h. […] In differentiated Caco-2 and fibroblasts, culture medium containing metal gold complexes was added 15 days post-seeding, and the cells were incubated for 72 h. The antiproliferative effect was measured using an MTT assay, as previously described by Mármol et al.. The absorbance at 540/620 nm was measured using a SPECTROstar Nano (BMG Labtech, Ortenberg, Germany). In order to determine the selectivity index (SI), the IC50 value of the differentiated Caco-2 cells was divided by IC50 value in undifferentiated Caco-2, obtaining the ratio of the normal/cancerous cells’ toxicity.

Data set [1] in a line: n-octanol-water distribution coefficient, shake-flask method. Format: physicochemical. Conditions: n-octanol/buffered saline pH 7.4, shake-flask. The protocol:
The n-octanol−water coefficients of the complexes were determined using a shake-flask method, as reported previously. Briefly, 100 mL buffered-saline (0.15 M NaCl, 10 mM phosphate [PO4^3−] buffer, pH 7.4) and 100 mL n-octanol were shaken for 72 h. The addition of 1 mg of the complexes followed by the centrifugation and separation of both phases gave two solutions, which were analysed by UV absorbance spectroscopy to determine their concentration in each phase. The corresponding value of log P was defined as log{[compound(organic)]/[compound(aqueous)]}.

Data set [2] concerns differentiated Caco-2 cells. Briefly: MTT cytotoxicity assay in differentiated Caco-2 cells (healthy cell model). Format: cell-based, human. The conditions noted are these: for decrease of cell viability: complexes at their IC50 (1 1.14 μM, 3 1.7 μM, 8 7.22 μM, 9 8.56 μM), 72 h; for IC50: treatment for 72 h. The method, then:
as §1, §2, §3

For data set [3], the system named is Human epithelial fibroblast cells (NHDF-Ad). As to the kind of experiment: MTT viability assay in human epithelial fibroblasts. Conditions: complexes at their IC50 (1 1.14 μM, 3 1.7 μM, 8 7.22 μM, 9 8.56 μM), 72 h. Format: cell-based. The method, then: as §1, §2, §3
The mark [4] stands for this setting: treatment for 72 h, read-out: IC50.
Setting [5] is: 24 h incubation, read-out: IC50 24 h.
[6] abbreviates: 48 h incubation, read-out: IC50 48 h.
[7] abbreviates: 72 h incubation, read-out: IC50 72 h.

Like-named read-outs stand apart in the source and are kept apart here.

For the compound `Cc1ccc(S(=O)(=O)NC(=S)[S][Au][PH](c2cccc(S(=O)(=O)[O-])c2)(c2cccc(S(=O)(=O)[O-])c2)c2cccc(S(=O)(=O)[O-])c2)cc1.[Na+].[Na+].[Na+]` [Complex 5, [Au(S2CNHSO2-p-Me-C6H4)(TPPTS)]], the IC50 with Caco-2 cells (setting [4]) was 31.8 ± 6.05 µM. Besides, the “Log P7.4” value in data set [1] is on record as −0.78.

With `C#CCn1ccn(C)[c]1=[Au-].O=S(=O)(NC(=S)[S-])c1ccccc1` [Complex 7, [Au(S2CNHSO2C6H5)(IMePropargyl)]], the half-inhibitory concentration (IC50) in the data set with Caco-2 cells (setting [4]) was 33.3 ± 5.01 µM. In data set [1], the “Log P7.4” value was 0.35.

Turning to `C#CCn1ccn(Cc2ccccc2)[c]1=[Au-].O=S(=O)(NC(=S)[S-])c1ccccc1` [Complex 9, [Au(S2CNHSO2C6H5)(IBnPropargyl)]], the IC50 with Caco-2 cells (setting [5]) is 31.2 ± 6.85 µM; in the data set with Caco-2 cells (setting [6]) it was 15.5 ± 1.89 µM; with Caco-2 cells (setting [7]), 8.56 ± 1.68 µM; with Caco-2 cells (setting [4]), 8.56 ± 1.68 µM; in data set [2], 19.5 ± 2.64 µM. Besides, the “decrease of cell viability” value in data set [2] and in data set [3] was “approximately 39%” throughout. In addition, the “Log P7.4” value in data set [1] came to 0.42.

As for “[Au(S2CNHSO2-p-Cl-C6H4)(PPh3)] [Complex 3]”, the IC50 in the data set on Caco-2 cells (setting [5]) was 2.48 ± 0.14 µM; in the data set on Caco-2 cells (setting [6]), 1.51 ± 0.1 µM; in the data set on Caco-2 cells (setting [7]), 1.7 ± 0.15 µM; in the data set on Caco-2 cells (setting [4]), 1.7 ± 0.15 µM; in data set [2], 14.3 ± 0.19 µM. Moreover, the “decrease of cell viability” value in data set [2] and in data set [3] was “did not compromise the viability” each time. Besides, the “Log P7.4” value in data set [1] amounted to 0.91.

On to “[Au(S2CNHSO2-p-Cl-C6H4)(TPPTS)] [Complex 6]”, for which, in the data set on Caco-2 cells (setting [4]), the 50% inhibitory concentration (IC50) turned out to be 33.7 ± 2.74 µM. Besides, the “Log P7.4” value in data set [1] is −0.83.

For “[Au(S2CNHSO2-p-Me-C6H4)(IBnPropargyl)] [Complex 10]”, the IC50 with Caco-2 cells (setting [4]) was found to be 13.2 ± 3.34 µM.

On to “[Au(S2CNHSO2-p-Me-C6H4)(PPh3)] [Complex 2]”, for which the half-inhibitory concentration (IC50) in the data set on Caco-2 cells (setting [4]) was 1.25 ± 0.35 µM. Also, the “Log P7.4” value in data set [1] came to 0.71.

Regarding [Au(S2CNHSO2C6H5)(TPPTS)] [Complex 4], the IC50 with Caco-2 cells (setting [4]) was determined as 46.7 ± 5.61 µM. Further, the “Log P7.4” value in data set [1] is −0.40.

(Values after paper PMC9221018, “Sulfonamide-Derived Dithiocarbamate Gold(I) Complexes Induce the Apoptosis of Colon Cancer Cells by the Activation of Caspase 3 and Redox Imbalance” (Biomedicines, 2022).)
